The source made the active and inactive calls. The rule behind the calls is not given here.
Legend:
[1] = test system: Helianthus annuus; test: Pre-emergence growth inhibition of Helianthus annuus (sunflower) assessed as visual injury at 1 kg/ha after 16 days relative to control; assay type: functional; design: scale not given: the % may be the effect or the level left
[2] = test system: Ipomoea hederacea; test: Herbicidal activity against Ipomoea hederacea (ivy-leaved morning glory) assessed as visual injury at 100 ug/seedling applied to cotyledon after 1 week relative to control; assay type: functional
[3] = test system: Abutilon theophrasti; test: Herbicidal activity against Abutilon theophrasti (velvetleaf) assessed as visual injury at 10 ug/seedling applied to meristem after 1 week relative to control; assay type: functional
[4] = test system: Abutilon theophrasti; test: Herbicidal activity against Abutilon theophrasti (velvetleaf) assessed as visual injury at 100 ug/seedling applied to leaf after 1 week relative to control; assay type: functional
[5] = test system: Agrostis stolonifera var. palustris; test: Herbicidal activity against Agrostis stolonifera var. palustris assessed as visual injury at 5 ppm after 9 days relative to control; assay type: functional
[6] = test system: Avena fatua; test: Pre-emergence growth inhibition of Avena fatua assessed as visual injury at 4 kg/ha after 16 days relative to control; assay type: functional; design: scale not given: the % may be the effect or the level left
[7] = test system: Helianthus annuus; test: Post-emergence growth inhibition of Helianthus annuus (sunflower) after 9 days; assay type: functional
[8] = test system: Avena fatua; test: Pre-emergence growth inhibition of Avena fatua assessed as visual injury at 2 kg/ha after 16 days relative to control; assay type: functional; design: scale not given: the % may be the effect or the level left
[9] = test system: Lemna minor; test: Herbicidal activity against Lemna minor (common duckweed) assessed as visual injury at 5 ppm after 9 days relative to control; assay type: functional
[10] = test system: Helianthus annuus; test: Post-emergence growth inhibition of Helianthus annuus (sunflower) assessed as visual injury at 0.5 kg/ha after 9 days relative to control; assay type: functional; design: scale not given: the % may be the effect or the level left
[11] = test system: Avena fatua; test: Post-emergence growth inhibition of Avena fatua after 9 days; assay type: functional
[12] = test system: Lemna minor; test: Herbicidal activity against Lemna minor (common duckweed) assessed as visual injury at 0.04 ppm after 9 days relative to control; assay type: functional
[13] = test system: Echinochloa crus-galli; test: Post-emergence herbicidal activity against Echinochloa crus-galli (barnyard grass) assessed as stunting at 0.5 to 4 kg/ha after 9 days; assay type: functional, organism-based
[14] = test system: Lemna minor; test: Herbicidal activity against Lemna minor (common duckweed) assessed as visual injury at 1 ppm after 9 days relative to control; assay type: functional
[15] = test system: Helianthus annuus; test: Post-emergence growth inhibition of Helianthus annuus (sunflower) assessed as visual injury at 2 kg/ha after 9 days relative to control; assay type: functional; design: scale not given: the % may be the effect or the level left
[16] = test system: Ipomoea hederacea; test: Pre-emergence herbicidal activity against Ipomoea hederacea (ivy-leaved morning glory) assessed as visual injury at 2 kg/ha after 16 days relative to control; assay type: functional
[17] = test system: Avena fatua; test: Pre-emergence growth inhibition of Avena fatua assessed as stunting at 0.5 to 4 kg/ha after 16 days; assay type: functional, organism-based
[18] = test system: Arabidopsis thaliana; test: Growth inhibition of Arabidopsis thaliana var. Columbia assessed as stunting after 9 days by agarose-based test; assay type: functional, organism-based
[19] = test system: Echinochloa crus-galli; test: Post-emergence herbicidal activity against Echinochloa crus-galli (barnyard grass) after 9 days; assay type: functional
[20] = test system: Ipomoea hederacea; test: Post-emergence herbicidal activity against Ipomoea hederacea (ivy-leaved morning glory) after 9 days; assay type: functional
[21] = test system: Abutilon theophrasti; test: Herbicidal activity against Abutilon theophrasti (velvetleaf) assessed as visual injury at 100 ug/seedling applied to meristem after 1 week relative to control; assay type: functional
[22] = test system: Abutilon theophrasti; test: Herbicidal activity against Abutilon theophrasti (velvetleaf) assessed as visual injury at 10 ug/seedling applied to leaf after 1 week relative to control; assay type: functional
[23] = test system: Echinochloa crus-galli; test: Pre-emergence herbicidal activity against Echinochloa crus-galli (barnyard grass) after 16 days; assay type: functional
[24] = test system: Arabidopsis thaliana; test: Growth inhibition of Arabidopsis thaliana var. Columbia assessed as root tip puffing after 9 days by agarose-based test; assay type: functional, organism-based
[25] = test system: Helianthus annuus; test: Herbicidal activity against Helianthus annuus (sunflower) assessed as visual injury at 1 ug/seedling applied to cotyledon after 1 week relative to control; assay type: functional
[26] = test system: Avena fatua; test: Post-emergence growth inhibition of Avena fatua assessed as visual injury at 2 kg/ha after 9 days relative to control; assay type: functional; design: scale not given: the % may be the effect or the level left
[27] = test system: Ipomoea hederacea; test: Pre-emergence herbicidal activity against Ipomoea hederacea (ivy-leaved morning glory) after 16 days; assay type: functional
[28] = test system: Ipomoea hederacea; test: Pre-emergence herbicidal activity against Ipomoea hederacea (ivy-leaved morning glory) assessed as meristematic at 0.5 to 4 kg/ha after 16 days; assay type: functional, organism-based
[29] = test system: Agrostis stolonifera var. palustris; test: Herbicidal activity against Agrostis stolonifera var. palustris assessed as visual injury at 0.2 ppm after 9 days relative to control; assay type: functional
[30] = test system: Lemna minor; test: Herbicidal activity against Lemna minor (common duckweed) after 9 days; assay type: functional
[31] = test system: Echinochloa crus-galli; test: Post-emergence herbicidal activity against Echinochloa crus-galli (barnyard grass) assessed as visual injury at 4 kg/ha after 9 days relative to control; assay type: functional
[32] = test system: Ipomoea hederacea; test: Herbicidal activity against Ipomoea hederacea (ivy-leaved morning glory) assessed as visual injury at 100 ug/seedling applied to meristem after 1 week relative to control; assay type: functional
[33] = test system: Ipomoea hederacea; test: Post-emergence herbicidal activity against Ipomoea hederacea (ivy-leaved morning glory) assessed as visual injury at 2 kg/ha after 9 days relative to control; assay type: functional
[34] = test system: Agrostis stolonifera var. palustris; test: Herbicidal activity against Agrostis stolonifera var. palustris assessed as stunting after 9 days by agarose-based test; assay type: functional, organism-based
[35] = test system: Agrostis stolonifera var. palustris; test: Herbicidal activity against Agrostis stolonifera var. palustris after 9 days by agarose-based test; assay type: functional
[36] = test system: Ipomoea hederacea; test: Post-emergence herbicidal activity against Ipomoea hederacea (ivy-leaved morning glory) assessed as meristematic at 0.5 to 4 kg/ha after 9 days; assay type: functional, organism-based
[37] = test system: Agrostis stolonifera var. palustris; test: Herbicidal activity against Agrostis stolonifera var. palustris assessed as visual injury at 0.008 ppm after 9 days relative to control; assay type: functional
[38] = test system: Ipomoea hederacea; test: Pre-emergence herbicidal activity against Ipomoea hederacea (ivy-leaved morning glory) assessed as visual injury at 1 kg/ha after 16 days relative to control; assay type: functional
[39] = test system: Ipomoea hederacea; test: Post-emergence herbicidal activity against Ipomoea hederacea (ivy-leaved morning glory) assessed as visual injury at 1 kg/ha after 9 days relative to control; assay type: functional
[40] = test system: Echinochloa crus-galli; test: Post-emergence herbicidal activity against Echinochloa crus-galli (barnyard grass) assessed as visual injury at 1 kg/ha after 9 days relative to control; assay type: functional
[41] = test system: Lemna minor; test: Herbicidal activity against Lemna minor (common duckweed) assessed as visual injury at 25 ppm after 9 days relative to control; assay type: functional
[42] = test system: Ipomoea hederacea; test: Herbicidal activity against Ipomoea hederacea (ivy-leaved morning glory) assessed as visual injury at 1 ug/seedling applied to cotyledon after 1 week relative to control; assay type: functional
[43] = test system: Helianthus annuus; test: Post-emergence growth inhibition of Helianthus annuus (sunflower) assessed as stunting at 0.5 to 4 kg/ha after 9 days; assay type: functional, organism-based
[44] = test system: Echinochloa crus-galli; test: Pre-emergence herbicidal activity against Echinochloa crus-galli (barnyard grass) assessed as stunting at 0.5 to 4 kg/ha after 16 days; assay type: functional, organism-based
[45] = test system: Avena fatua; test: Post-emergence growth inhibition of Avena fatua assessed as visual injury at 1 kg/ha after 9 days relative to control; assay type: functional; design: scale not given: the % may be the effect or the level left
[46] = test system: Lemna minor; test: Herbicidal activity against Lemna minor (common duckweed) assessed as visual injury at 0.2 ppm after 9 days relative to control; assay type: functional
[47] = test system: Agrostis stolonifera var. palustris; test: Herbicidal activity against Agrostis stolonifera var. palustris after 9 days; assay type: functional
[48] = test system: Avena fatua; test: Post-emergence growth inhibition of Avena fatua assessed as wilting at 0.5 to 4 kg/ha after 9 days; assay type: functional, organism-based
[49] = test system: Ipomoea hederacea; test: Post-emergence herbicidal activity against Ipomoea hederacea (ivy-leaved morning glory) assessed as wilting at 0.5 to 4 kg/ha after 9 days; assay type: functional, organism-based
[50] = test system: Ipomoea hederacea; test: Pre-emergence herbicidal activity against Ipomoea hederacea (ivy-leaved morning glory) assessed as visual injury at 4 kg/ha after 16 days relative to control; assay type: functional

CN1C(=O)[C@](O)(Cc2cccc(O)c2)N(C)C(=O)[C@@H]1Cc1c[nH]c2cccc([N+](=O)[O-])c12 [THAXTOMIN A]
Activity [1]: 100%
Activity [2]: 0%
Activity [3]: 75%
Activity [4]: 0%
Activity [5]: 100%
Activity [6]: 100%
GR50 [7]: <500 g/ha
Activity [8]: 100%
Activity [9]: 100%
Activity [10]: 75%
GR50 [11]: 2 kg/ha
Activity [12]: 70%
Activity [13]: Active
Activity [14]: 100%
Activity [15]: 85%
Activity [16]: 100%
Activity [17]: Active
growth inhibition (GI) [18]: Active
GR50 [19]: 2 kg/ha
GR50 [20]: <500 g/ha
Activity [21]: 80%
Activity [22]: 0%
GR50 [23]: <500 g/ha
growth inhibition (GI) [24]: Active
Activity [25]: 0%
Activity [26]: 20%
GR50 [27]: <500 g/ha
Activity [28]: Active
Activity [29]: 100%
GR50 [30]: 5 ppb
Activity [31]: 85%
Activity [32]: 80%
Activity [33]: 80%
Activity [34]: Active
I50 [35]: 25 ppb
Activity [36]: Active
Activity [37]: 50%
Activity [38]: 100%
Activity [39]: 80%
Activity [40]: 20%
Activity [41]: 100%
Activity [42]: 0%
Activity [43]: Active
Activity [44]: Active
Activity [45]: 30%
Activity [46]: 95%
GR50 [47]: 12 ppb
Activity [48]: Active
Activity [49]: Active
Activity [50]: 100%

Source: ChEMBL document CHEMBL3046609, “Herbicidal properties of the thaxtomin group of phytotoxins” (2001)
